Experimental data reported in US4629737A, “Secondary amines and use in pharmaceutical compositions” (Beecham Group p.l.c., priority 1982, dated 1986).
Counter-ions that a name gives are not always drawn. Like-named read-outs stand apart in the source and are kept apart here.

Columns and labels:
[1] = system: blood glucose; assay: Hypoglycaemic activity: reduction in area under blood glucose curve after glucose load; format: in vivo, Female CFLP mice; conditions: Mus musculus, read-out: % Reduction in area under Blood Glucose Curve
Description: Female CFLP mice, weighing approximately 25 g, were fasted for 24 hours prior to the study. The compounds under study were administered orally as an aqueous solution to each of 6 mice. 30 minutes later a blood sample (10 μl) was obtained from the tail for the analysis of blood glucose. Immediately after taking this blood sample, glucose (1 g/Kg body weight) was administered subcutaneously to each mouse. 6 mice were given water as a control. Blood samples were then obtained from each mouse at 30 minute intervals for 120 minutes.
Compounds that produced a significant (P<0.05) reduction of blood glucose, compared with control mice given water, at any time interval, were considered active. The area under the blood glucose curve over the 2 hour period after the administration of the glucose was calculated for each compound and compared with the value for control animals.

[2] = Effect on energy expenditure of mice; format: in vivo, Female CFLP mice; conditions: Mus musculus; for response vs control in vivo at 8.5 mg/kg: 8.5 mg/kg po
Description: Female CFLP mice, each weighing approximately 24 g were given food and water ad lib before and during the experiment. The compounds were dissolved in water by addition of one mole of hydrochloric acid per mole of compound and these solutions were administered orally to each of 12 mice. A further 12 mice were dosed orally with water. The mice were placed in boxes through which air was drawn and the oxygen content of the air leaving the boxes was measured. The energy expenditure of the mice was calculated for 21 hours after dosing from the volume of air leaving the boxes and its oxygen content, following the principles described by J. B. de V. Weir, J. Physiol. (London), 109, 1-9 (1949).

[3] = po, 3 h, read-out: Mean Energy Expenditure (0-3 h)
[4] = po, 21 h, read-out: Mean Energy Expenditure (0-21 h)

SMILES: COC(=O)Cc1ccc(CC(C)NCC(OC)c2cccc(Cl)c2)cc1 (stereo not drawn) [Example 49, N-[2-(4-Carbomethoxymethylphenyl)-1-methylethyl]-2-methoxy-2-(3-chlorophenyl)ethanamine hydrochloride]
- inhibition in vivo at 12.5 µmol/kg ([1]; po, 2 h): 47%
- response vs control in vivo at 20.6 mg/kg [2, 3]: 131%
- response vs control in vivo at 20.6 mg/kg [2, 4]: 135%

SMILES: COC(=O)COc1ccc(CC(C)NCC(OCc2ccccc2)c2cccc(Cl)c2)cc1 (stereo not drawn) [Example 50, N-[2-(4-Carbomethoxymethoxyphenyl)-1-methylethyl]-2-benzyloxy-2-(3-chlorophenyl)ethanamine hydrochloride]
- inhibition in vivo at 2.5 µmol/kg ([1]; po, 2 h): 41%
- response vs control in vivo at 24.6 mg/kg [2, 3]: 142%
- response vs control in vivo at 24.6 mg/kg [2, 4]: 116%

SMILES: CNC(=O)COc1ccc(CCNCC(OC)c2cccc(Cl)c2)cc1 (stereo not drawn) [Example 51, N-[2-(4-Methylaminocarbonylmethoxyphenyl)ethyl]-2-methoxy-2-(3-chlorophenyl)ethanamine hydrochloride]
- inhibition in vivo at 12.5 µmol/kg ([1]; 12.5 μmol/Kg oral, 2 h after glucose 1 g/Kg s.c., vs control): 45%
- response vs control in vivo at 20.7 mg/kg [2, 4]: 108%
- response vs control in vivo at 20.7 mg/kg ([2]; 20.7 mg/kg po, 0-3 h, read-out: Mean Energy Expenditure (0-3 h)): 128%

SMILES: CNC(=O)COc1ccc(CC(C)NCC(COc2ccccc2)OC)cc1 (stereo not drawn) [Example 52, N-[2-(4-Methylaminocarbonylmethoxyphenyl)-1-methylethyl]-2-methoxy-3-phenoxypropanamine hydrochloride]
- inhibition in vivo at 12.5 µmol/kg ([1]; po, 2 h): 35%
- response vs control in vivo at 21.1 mg/kg [2, 3]: 130%
- response vs control in vivo at 21.1 mg/kg [2, 4]: 113%

SMILES: CNC(=O)COc1ccc(CC(C)NCC(OC)c2ccccc2F)cc1 (stereo not drawn) [Example 55, N-[2-(4-Methylaminocarbonylmethoxyphenyl)-1-methylethyl]-2-methoxy-2-(2-fluorophenyl)ethanamine hydrochloride]
- inhibition in vivo at 12.5 µmol/kg ([1]; po, 2 h): 42%
- response vs control in vivo at 20.6 mg/kg [2, 3]: 150%
- response vs control in vivo at 20.6 mg/kg [2, 4]: 121%

SMILES: CNC(=O)COc1ccc(CC(C)NCC(OC)c2cccc(C)c2)cc1 (stereo not drawn) [Example 56, N-[2-(4-Methylaminocarbonylmethoxyphenyl)-1-methylethyl]-2-methoxy-2-(3-methylphenyl)ethanamine hydrochloride]
- inhibition in vivo at 12.5 µmol/kg ([1]; po, 2 h): 40%
- response vs control in vivo at 20.4 mg/kg [2, 3]: 148%
- response vs control in vivo at 20.4 mg/kg [2, 4]: 108%

SMILES: COC(CNC(C)Cc1ccc(OCCOc2ccccc2)cc1)c1cccc(Cl)c1 (stereo not drawn) [Example 57, N-[2-(4-(2-Phenoxyethoxy)phenyl)-1-methylethyl]-2-methoxy-2-(3-chlorophenyl)ethanamine hydrochloride]
- inhibition in vivo at 2.5 µmol/kg ([1]; po, 2 h): 28%
- response vs control in vivo at 23.8 mg/kg [2, 3]: 178%
- response vs control in vivo at 23.8 mg/kg [2, 4]: 123%

SMILES: COC(=O)CN(C)c1ccc(CC(C)NCC(OC)c2ccccc2)cc1 (stereo not drawn) [Example 58, N-[2-(4-N'-Methyl-N'-carbomethoxymethylaminophenyl)-1-methylethyl]-2-methoxy-2-phenylethanamine dihydrochloride]
- inhibition in vivo at 2.5 µmol/kg ([1]; 2.5 μmol/Kg oral, 2 h after glucose 1 g/Kg s.c., vs control): 17%
- response vs control in vivo at 22.1 mg/kg [2, 4]: 108%
- response vs control in vivo at 22.1 mg/kg ([2]; 22.1 mg/kg po, 0-3 h, read-out: Mean Energy Expenditure (0-3 h)): 131%

SMILES: CNCCOc1ccc(C[C@@H](C)NC[C@H](OC)c2ccccc2)cc1 [Example 59, N-[2-(4-(2-Methylaminoethoxy)phenyl)-1-(R)-1-methylethyl]-2-(R)-2-methoxy-2-phenylethanamine dihydrochloride hemihydrate]
- inhibition in vivo at 25 µmol/kg ([1]; 25 μmol/Kg oral, 2 h after glucose 1 g/Kg s.c., vs control): 36%
- response vs control in vivo at 8.5 mg/kg ([2]; 0-3 h, read-out: Mean Energy Expenditure (0-3 h)): 148%
- response vs control in vivo at 8.5 mg/kg ([2]; 0-21 h, read-out: Mean Energy Expenditure (0-21 h)): 111%
